How the values were obtained:
Glaucoma patients = conditions: normal tension glaucoma patients; cited from earlier work
[1] = tested on: albino New Zealand white rabbits; conditions: conclusion from retinal blood flow in rabbits
Protocol: Retinal blood flow rate in the major temporal vein in the right eye of albino New Zealand white rabbits is measured at pre-administration baseline, as well as post-administration of Alphagan® P as drops, post-administration of a composition comprising brimonidine and a penetration enhancer as a mist, and post-administration of a composition in accordance with the principles of the present invention comprising brimonidine or a salt thereof and being devoid of a penetration enhancer as a mist. […] In this instrument, the measuring laser beam is locked onto the target blood vessel during eye movements through an eye-tracking feedback and control system. Doppler-shifted laser light scattered from a retinal vessel is analyzed to determine centerline blood velocity.
Venous blood flow, which is known to be directly correlated to arterial blood flow, is measured, since retinal veins have a larger diameter than retinal arteries, facilitating better locking of the measuring laser beams onto the target vessel. […]
The beam from a red 675-nm diode laser is used for velocity measurement, emitted from a fundus camera-like measuring head. The Doppler-shifted light scattered from the flowing blood cells in the target vessel is detected simultaneously in two directions, separated by a fixed angle. […]
Following administration of the composition, the blood flow velocity in the same veins is measured.

| Structure (SMILES) | maintenance of retinal blood flow homeostasis with changes in posture (Glaucoma patients) | efficacy compared between ways of administration or compositions [1] |
| --- | --- | --- |
| CC(C)OC(=O)CCC/C=C\C[C@@H]1[C@@H](CC[C@@H](O)CCc2ccccc2)[C@H](O)C[C@@H]1O [latanoprost] | not |  |
| Brc1c(NC2=NCCN2)ccc2nccnc12 [brimonidine, 5-Bromo-N-(4,5-dihydro-1H-imidazol-2-yl) quinoxalin-6-amine] | maintained retinal blood flow homeostasis | as effective as administration in the form of eye-drops |

From patent US20110262544A1, “OPHTHALMIC ADMINISTRATION OF A COMPOSITION INCLUDING BRIMONIDINE AS A MIST” (PHARMALIGHT INC., priority 2008, published 2011)
